Consider 14 compounds from patent US10912780B2, “Heterocyclic compounds useful as anti-bacterial agents and method for production thereof” (Bugworks Research, Inc., priority 2017, dated 2021).

≈ marks a conversion by molar mass, not a printed value.

Test [1] relates to Enterococcus faecalis ATCC 29212. Put plainly: Minimum Inhibitory Concentration (MIC) in LB media. In kind it is cell-based. To be noted: for MIC: Enterococcus faecalis, ATCC29212, read-out: Minimum Inhibitory Concentration E. faecalis ATCC 29212. An excerpt:
(§1) The compounds of Formula (I) are of interest due to their potent antibacterial effects. The ability of the invention compounds disclosed herein to achieve an antibacterial effect may be evaluated with regard to their ability to inhibit the growth of bacterial species like Escherichia coli ATCC 25922, Staphylococcus aureus ATCC 29213, Klebsiella pneumoniae ATCC 13883, Acinetobacter baumannii ATCC 19606, Pseudomonas aeruginosa ATCC 27853, Enterococcus faecalis ATCC 29212 and Enterococcus faecalis ATCC 29212 using an assay based on the following Minimum Inhibitory Concentration (MIC) protocol:
(§2) The medium sterility is checked by incubating at 37° C. for a period of 48 h.
(§3) Bacterial cultures that are stored as glycerol stocks at −80° C. are sub cultured on LB agar plates to obtain isolated colonies. A single colony of each strain is cultured in LB broth. The cultures are incubated at 37 C, 200 rpm till they reach an optical density (OD at 600 nm) of 0.8 to 1. […] Test compounds are dissolved in dimethyl sulfoxide (DMSO) to a stock concentration of 4 mg/ml. A twofold dilution series of this DMSO stock is prepared in a 96 well V bottom microtitre plate from rows A to H. A 3 μL volume of these dilutions are transferred to a 96-well flat bottom microtitre assay plate. Controls to monitor the effects of DMSO and media sterility are included. Each well is inoculated with 150 μL of the above diluted culture. The plates are incubated at 37° C. overnight in a humidified incubator. The following morning, the plates are read using a Spectrophotometer at 600 nm wavelength. […] The antibacterial activity (MIC) determined against representative Gram positive (S. aureus, E. faecalis) and Gram negative (E.coli, -P. aeruginosa and A. baumannii) pathogen were reported Table 1.

Test [2] has as its system Escherichia coli ATCC 25922. Put plainly: Minimum Inhibitory Concentration (MIC) in LB media. Type of test: cell-based. To be noted: for MIC: Escherichia coli, ATCC25922, read-out: Minimum Inhibitory Concentration E. coli ATCC 25922.
Excerpt: as §1, §2, §3

Test [3] relates to Klebsiella pneumoniae ATCC 13883. The test can be described thus: Minimum Inhibitory Concentration (MIC) in LB media. In kind it is cell-based. To be noted: for MIC: Klebsiella pneumoniae, ATCC13883, read-out: Minimum Inhibitory Concentration K. pneumoniae ATCC 13883.
Excerpt: as §1, §2, §3

Test [4] has as its system Pseudomonas aeruginosa ATCC 27853. Put plainly: Minimum Inhibitory Concentration (MIC) in LB media. Type of test: cell-based. To be noted: for MIC: Pseudomonas aeruginosa, ATCC27853, read-out: Minimum Inhibitory Concentration P. aeruginosa ATCC 27853.
Excerpt: as §1, §2, §3

For test [5], the system named is Staphylococcus aureus ATCC 29213. The test can be described thus: Minimum Inhibitory Concentration (MIC) in LB media. Type of test: cell-based. To be noted: for MIC: Staphylococcus aureus, ATCC29213, read-out: Minimum Inhibitory Concentration S. aureus ATCC 29213.
Excerpt: as §1, §2, §3

Test [6] concerns Acinetobacter baumannii ATCC 19606. Put plainly: Minimum Inhibitory Concentration (MIC) in LB media. In kind it is cell-based. To be noted: for MIC: Acinetobacter baumannii, ATCC19606.
Description: Bacterial cultures that are stored as glycerol stocks at −80° C. are sub cultured on LB agar plates to obtain isolated colonies. A single colony of each strain is cultured in LB broth. […] Test compounds are dissolved in dimethyl sulfoxide (DMSO) to a stock concentration of 4 mg/ml. A twofold dilution series of this DMSO stock is prepared in a 96 well V bottom microtitre plate from rows A to H. A 3 μL volume of these dilutions are transferred to a 96-well flat bottom microtitre assay plate. Controls to monitor the effects of DMSO and media sterility are included. Each well is inoculated with 150 μL of the above diluted culture. The plates are incubated at 37° C. overnight in a humidified incubator. The following morning, the plates are read using a Spectrophotometer at 600 nm wavelength.
The target in test [7] is E. coli DNA gyrase (Escherichia coli, UniProt P0AES4+P0AES6). Put plainly: biochemical. To be noted: supercoiling assay.
Test [8] has as its target E. coli topoisomerase IV (Escherichia coli, UniProt P0AFI2+P20083). The test can be described thus: biochemical. To be noted: decatenation assay; read-out: E. coli Topo IV IC50.
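Throughout, for Minimum Inhibitory Concentration A. baumannii ATCC 19606: twofold compound dilutions from DMSO stocks in LB broth microplates, overnight incubation at 37 °C, growth read by absorbance at 600 nm, with DMSO and sterility controls.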

Chain of E. coli topoisomerase IV (P20083 whole entry): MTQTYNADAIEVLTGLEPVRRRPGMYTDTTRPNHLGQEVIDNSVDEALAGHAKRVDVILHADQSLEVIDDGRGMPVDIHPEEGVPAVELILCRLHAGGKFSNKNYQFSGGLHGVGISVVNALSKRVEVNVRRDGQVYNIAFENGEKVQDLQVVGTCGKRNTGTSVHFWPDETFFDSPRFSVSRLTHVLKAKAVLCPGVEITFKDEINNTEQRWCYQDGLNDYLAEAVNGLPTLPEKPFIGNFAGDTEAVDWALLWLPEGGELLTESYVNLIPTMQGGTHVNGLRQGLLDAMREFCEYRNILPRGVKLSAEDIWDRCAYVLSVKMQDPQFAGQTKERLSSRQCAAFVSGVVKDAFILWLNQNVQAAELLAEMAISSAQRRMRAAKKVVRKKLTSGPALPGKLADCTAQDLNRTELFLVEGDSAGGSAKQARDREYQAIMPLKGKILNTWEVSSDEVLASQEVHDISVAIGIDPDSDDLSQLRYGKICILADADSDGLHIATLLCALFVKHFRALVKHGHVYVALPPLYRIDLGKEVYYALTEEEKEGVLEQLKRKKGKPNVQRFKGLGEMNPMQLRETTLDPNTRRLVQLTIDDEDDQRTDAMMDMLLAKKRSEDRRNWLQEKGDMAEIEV
Chain of E. coli topoisomerase IV (P0AFI2 whole entry): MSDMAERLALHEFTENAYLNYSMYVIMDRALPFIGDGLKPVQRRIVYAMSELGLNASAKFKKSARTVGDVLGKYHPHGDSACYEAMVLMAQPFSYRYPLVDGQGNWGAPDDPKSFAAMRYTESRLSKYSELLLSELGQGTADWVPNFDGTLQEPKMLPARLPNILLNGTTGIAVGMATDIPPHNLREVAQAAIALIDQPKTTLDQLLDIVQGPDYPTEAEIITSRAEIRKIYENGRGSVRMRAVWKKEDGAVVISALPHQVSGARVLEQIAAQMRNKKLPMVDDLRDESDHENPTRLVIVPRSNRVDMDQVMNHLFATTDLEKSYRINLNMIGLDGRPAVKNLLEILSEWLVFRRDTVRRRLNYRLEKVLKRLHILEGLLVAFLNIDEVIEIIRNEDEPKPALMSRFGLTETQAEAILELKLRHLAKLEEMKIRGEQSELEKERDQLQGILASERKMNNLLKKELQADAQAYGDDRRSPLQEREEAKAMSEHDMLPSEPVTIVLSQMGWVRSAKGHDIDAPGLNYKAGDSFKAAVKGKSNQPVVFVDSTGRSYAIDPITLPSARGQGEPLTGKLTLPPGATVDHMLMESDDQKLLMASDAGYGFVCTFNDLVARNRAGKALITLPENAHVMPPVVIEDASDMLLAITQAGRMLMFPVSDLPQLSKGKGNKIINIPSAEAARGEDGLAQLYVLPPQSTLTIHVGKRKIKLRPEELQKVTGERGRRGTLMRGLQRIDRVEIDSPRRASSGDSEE
Chain of E. coli DNA gyrase (P0AES4 whole entry, one chain of several): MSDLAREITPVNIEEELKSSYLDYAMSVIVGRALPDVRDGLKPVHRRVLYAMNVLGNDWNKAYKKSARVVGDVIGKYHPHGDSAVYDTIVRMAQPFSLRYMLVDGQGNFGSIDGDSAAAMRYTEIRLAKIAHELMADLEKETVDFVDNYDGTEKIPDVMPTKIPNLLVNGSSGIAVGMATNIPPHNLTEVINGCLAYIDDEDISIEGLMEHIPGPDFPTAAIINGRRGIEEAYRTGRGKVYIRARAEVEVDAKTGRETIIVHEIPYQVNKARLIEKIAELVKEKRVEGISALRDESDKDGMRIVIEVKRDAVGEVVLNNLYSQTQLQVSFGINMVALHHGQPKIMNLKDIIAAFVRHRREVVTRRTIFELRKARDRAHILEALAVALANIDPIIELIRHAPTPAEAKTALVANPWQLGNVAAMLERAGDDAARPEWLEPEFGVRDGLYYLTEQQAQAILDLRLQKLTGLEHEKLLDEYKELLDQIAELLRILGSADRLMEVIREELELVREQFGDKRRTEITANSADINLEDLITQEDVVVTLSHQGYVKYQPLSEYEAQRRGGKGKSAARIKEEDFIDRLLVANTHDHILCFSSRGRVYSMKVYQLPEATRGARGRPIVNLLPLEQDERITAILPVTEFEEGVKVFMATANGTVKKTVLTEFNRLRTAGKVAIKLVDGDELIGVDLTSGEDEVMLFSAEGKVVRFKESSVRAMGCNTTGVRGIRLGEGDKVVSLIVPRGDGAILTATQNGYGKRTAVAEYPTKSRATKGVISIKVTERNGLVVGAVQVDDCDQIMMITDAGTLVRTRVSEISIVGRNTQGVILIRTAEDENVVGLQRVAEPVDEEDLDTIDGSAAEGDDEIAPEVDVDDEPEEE

As to `Cc1cc(=O)n(C)c2c(CCNC[C@H]3CN(c4cnc5c(n4)NC(=O)CO5)C(=O)O3)c(F)ccc12` [Example 28, (S)-6-(5-(((2-(7-fluoro-1,4-dimethyl-2-oxo-1,2-dihydroquinolin-8-yl)ethyl)amino)methyl)-2-oxooxazolidin-3-yl)-2H-pyrazino[2,3-b][1,4]oxazin-3(4H)-one], the MIC is 0.06 µg/mL (≈ 0.124 µM) in test [1]; 0.06 µg/mL (≈ 0.124 µM) in test [2]; 0.06 µg/mL (≈ 0.124 µM) in test [3]; 0.5 µg/mL (≈ 1.04 µM) in test [4]; not above 0.015 µg/mL in test [5]; 0.125 µg/mL (≈ 0.259 µM) in test [6].
Consider `CCn1c(=O)ccc2ccc(F)c(CCNCC[C@H]3CN(c4cnc5c(n4)NC(=O)CO5)C(=O)O3)c21` [Example 27, (S)-6-(5-(2-((2-(1-ethyl-7-fluoro-2-oxo-1,2-dihydroquinolin-8-yl)ethyl)amino)ethyl)-2-oxooxazolidin-3-yl)-2H-pyrazino[2,3-b][1,4]oxazin-3(4H)-one], for which the MIC was 0.06 µg/mL (≈ 0.121 µM) in test [1]; 0.03 µg/mL (≈ 0.0604 µM) in test [2]; 0.125 µg/mL (≈ 0.252 µM) in test [3]; 0.5 µg/mL (≈ 1.01 µM) in test [4]; 0.015 µg/mL (≈ 0.0302 µM) in test [5]; 0.06 µg/mL (≈ 0.121 µM) in test [6].
As to `Cn1c(=O)ccc2ncc(F)c(CCNC[C@H]3CN(c4cnc5c(n4)NC(=O)CO5)C(=O)O3)c21` [Example 29, (S)-6-(5-(((2-(3-fluoro-5-methyl-6-oxo-5,6-dihydro-1,5-naphthyridin-4-yl)ethyl)amino)methyl)-2-oxooxazolidin-3-yl)-2H-pyrazino[2,3-b][1,4]oxazin-3(4H)-one], the MIC was determined as 0.125 µg/mL (≈ 0.266 µM) in test [1]; 0.125 µg/mL (≈ 0.266 µM) in test [2]; 0.125 µg/mL (≈ 0.266 µM) in test [3]; 0.5 µg/mL (≈ 1.07 µM) in test [4]; 0.03 µg/mL (≈ 0.0639 µM) in test [5]; 0.5 µg/mL (≈ 1.07 µM) in test [6].
In the case of `Cn1c(=O)ccc2ncc(F)c(CCCNCC3CN(c4ccc5c(n4)NC(=O)CO5)C(=O)O3)c21` (stereo not drawn) [Example 1b, Chiral 6-(5-(((3-(3-fluoro-5-methyl-6-oxo-5,6-dihydro-1,5-naphthyridin-4-yl)propyl)amino)methyl)-2-oxooxazolidin-3-yl)-2H-pyrido[3,2-b][1,4]oxazin-3(4H)-one], the “Minimum Inhibitory Concentration E. faecalis ATCC 29212” value in test [1] is less than 4 µg/mL. The “Minimum Inhibitory Concentration E. coli ATCC 25922” value in test [2] was less than 0.5 µg/mL. Further, the “Minimum Inhibitory Concentration K. pneumoniae ATCC 13883” value in test [3] was less than 1 µg/mL. The “Minimum Inhibitory Concentration P. aeruginosa ATCC 27853” value in test [4] was less than 16 µg/mL. Further, the “Minimum Inhibitory Concentration S. aureus ATCC 29213” value in test [5] is less than 4 µg/mL. Besides, the “Minimum Inhibitory Concentration A. baumannii ATCC 19606” value in test [6] is less than 0.5 µg/mL.
As for `Cn1c(=O)cnc2ccc(F)c(CCNC[C@H]3CN(c4ncc5c(n4)NC(=O)CO5)C(=O)O3)c21` [Example 17, (S)-2-(5-(((2-(6-fluoro-4-methyl-3-oxo-3,4-dihydroquinoxalin-5-yl)ethyl)amino)methyl)-2-oxooxazolidin-3-yl)-6H-pyrimido[5,4-b][1,4]oxazin-7(8H)-one], the MIC in test [1] amounted to 0.25 µg/mL (≈ 0.533 µM); in test [2], 0.125 µg/mL (≈ 0.266 µM); in test [3], 0.25 µg/mL (≈ 0.533 µM); in test [4], 2 µg/mL (≈ 4.26 µM); in test [5] it was 0.125 µg/mL (≈ 0.266 µM); in test [6], 1 µg/mL (≈ 2.13 µM).
Regarding `Cc1nc2ccc(F)c(CCNC[C@H]3CN(c4ccc5c(n4)NC(=O)CO5)C(=O)O3)c2n(C)c1=O` [Example 6, (S)-6-(5-(((2-(6-fluoro-2,4-dimethyl-3-oxo-3,4-dihydroquinoxalin-5-yl)ethyl)amino)methyl)-2-oxooxazolidin-3-yl)-2H-pyrido[3,2-b][1,4]oxazin-3(4H)-one], the MIC was determined as 0.125 µg/mL (≈ 0.259 µM) in test [1]; 0.06 µg/mL (≈ 0.124 µM) in test [2]; 0.125 µg/mL (≈ 0.259 µM) in test [3]; 1 µg/mL (≈ 2.07 µM) in test [4]; 0.015 µg/mL (≈ 0.0311 µM) in test [5]; 0.015 µg/mL (≈ 0.0311 µM) in test [6]. Besides, the 50% inhibitory concentration (IC50) in test [7] came out at 0.0034 µM; in test [8] it was 0.03 µM.
On to `Cn1c(=O)ccc2ccc(F)c(C[C@@H](O)CNC[C@H]3CN(c4ccc5c(n4)NC(=O)CO5)C(=O)O3)c21` (single isomer, unassigned) [Example 19], for which the MIC in test [1] was 0.5 µg/mL (≈ 1.01 µM); in test [2] it was 0.25 µg/mL (≈ 0.503 µM); in test [3] it was 0.125 µg/mL (≈ 0.251 µM); in test [4], 2 µg/mL (≈ 4.02 µM); in test [5], 0.25 µg/mL (≈ 0.503 µM); in test [6], 1 µg/mL (≈ 2.01 µM).
For `Cn1c(=O)cnc2ccc(F)c(CCNC[C@H]3CN(c4cnc5c(n4)NC(=O)CO5)C(=O)O3)c21` [Example 30, (S)-6-(5-(((2-(6-fluoro-4-methyl-3-oxo-3,4-dihydroquinoxalin-5-yl)ethyl)amino)methyl)-2-oxooxazolidin-3-yl)-2H-pyrazino[2,3-b][1,4]oxazin-3(4H)-one], the MIC was 0.125 µg/mL (≈ 0.266 µM) in test [1]; 0.06 µg/mL (≈ 0.128 µM) in test [2]; 0.06 µg/mL (≈ 0.128 µM) in test [3]; 0.25 µg/mL (≈ 0.533 µM) in test [4]; 0.03 µg/mL (≈ 0.0639 µM) in test [5]; 0.06 µg/mL (≈ 0.128 µM) in test [6].
Regarding `CN1C(=O)CCc2ccc(F)c(CCNC[C@H]3CN(c4ccc5c(n4)NC(=O)CO5)C(=O)O3)c21` [Example 2, (S)-6-(5-(((2-(7-fluoro-1-methyl-2-oxo-1,2,3,4-tetrahydroquinolin-8-yl)ethyl)amino)methyl)-2-oxooxazolidin-3-yl)-2H-pyrido[3,2-b][1,4]oxazin-3(4H)-one], the MIC in test [1] came to 1 µg/mL (≈ 2.13 µM); in test [2], 0.125 µg/mL (≈ 0.266 µM); in test [3], 0.25 µg/mL (≈ 0.533 µM); in test [4], 4 µg/mL (≈ 8.52 µM); in test [5], 0.125 µg/mL (≈ 0.266 µM); in test [6], 0.125 µg/mL (≈ 0.266 µM).
As for `CCn1c(=O)ccc2ccc(F)c(CCNC[C@H]3CN(c4cnc5c(n4)NC(=O)CO5)C(=O)O3)c21` [Example 26, (S)-6-(5-(((2-(1-ethyl-7-fluoro-2-oxo-1,2-dihydroquinolin-8-yl)ethyl)amino)methyl)-2-oxooxazolidin-3-yl)-2H-pyrazino[2,3-b][1,4]oxazin-3(4H)-one], the MIC in test [1] is 0.03 µg/mL (≈ 0.0622 µM); in test [2], 0.03 µg/mL (≈ 0.0622 µM); in test [3], 0.03 µg/mL (≈ 0.0622 µM); in test [4], 0.5 µg/mL (≈ 1.04 µM); in test [5] it was not above 0.015 µg/mL; in test [6] it was 0.03 µg/mL (≈ 0.0622 µM).
Consider `Cc1nc2ccc(F)c(CCNC[C@@H]3CN(c4ccc5c(n4)NC(=O)CO5)C(=O)O3)c2n(C)c1=O` [Example 7, (R)-6-(5-(((2-(6-fluoro-2,4-dimethyl-3-oxo-3,4-dihydroquinoxalin-5-yl)ethyl)amino)methyl)-2-oxooxazolidin-3-yl)-2H-pyrido[3,2-b][1,4]oxazin-3(4H)-one], for which the MIC in test [1] worked out at 0.25 µg/mL (≈ 0.518 µM); in test [2], 0.125 µg/mL (≈ 0.259 µM); in test [3], 0.25 µg/mL (≈ 0.518 µM); in test [4] it was 2 µg/mL (≈ 4.15 µM); in test [5] it was 0.06 µg/mL (≈ 0.124 µM); in test [6], 0.06 µg/mL (≈ 0.124 µM).
Regarding `Cn1c(=O)ccc2ncc(F)c(CCCNCC3CN(c4ccc5c(n4)NC(=O)CO5)C(=O)O3)c21` (racemic) [Example 1, 6-(5-(((3-(3-fluoro-5-methyl-6-oxo-5,6-dihydro-1,5-naphthyridin-4-yl)propyl)amino)methyl)-2-oxooxazolidin-3-yl)-2H-pyrido[3,2-b][1,4]oxazin-3(4H)-one], the MIC in test [1] was less than 4 µg/mL; in test [2], less than 0.5 µg/mL; in test [3], less than 1 µg/mL; in test [4], less than 16 µg/mL; in test [5] it was less than 4 µg/mL; in test [6] it was less than 0.5 µg/mL.
With `CS(=O)(=O)CCn1c(=O)ccc2ccc(F)c(CCNC[C@H]3CN(c4ccc5c(n4)NC(=O)CO5)C(=O)O3)c21` [Example 11, (S)-6-(5-(((2-(7-fluoro-1-(2-(methylsulfonyl)ethyl)-2-oxo-1,2-dihydroquinolin-8-yl)ethyl)amino)methyl)-2-oxooxazolidin-3-yl)-2H-pyrido[3,2-b][1,4]oxazin-3(4H)-one], the MIC in test [1] stood at 0.5 µg/mL (≈ 0.894 µM); in test [2] it was 0.25 µg/mL (≈ 0.447 µM); in test [3] it was 0.25 µg/mL (≈ 0.447 µM); in test [4], 2 µg/mL (≈ 3.57 µM); in test [5], 0.03 µg/mL (≈ 0.0536 µM); in test [6] it was 0.5 µg/mL (≈ 0.894 µM).
Turning to `COCCn1c(=O)ccc2ccc(F)c(CCNC[C@H]3CN(c4cnc5c(n4)NC(=O)CO5)C(=O)O3)c21` [Example 21, (S)-6-(5-(((2-(7-fluoro-1-(2-methoxyethyl)-2-oxo-1,2-dihydroquinolin-8-yl)ethyl)amino)methyl)-2-oxooxazolidin-3-yl)-2H-pyrazino[2,3-b][1,4]oxazin-3(4H)-one], the MIC is 0.25 µg/mL (≈ 0.488 µM) in test [1]; 0.06 µg/mL (≈ 0.117 µM) in test [2]; 0.125 µg/mL (≈ 0.244 µM) in test [3]; 1 µg/mL (≈ 1.95 µM) in test [4]; 0.015 µg/mL (≈ 0.0293 µM) in test [5]; 0.125 µg/mL (≈ 0.244 µM) in test [6].
